The source of these data is patent US6521456B1, “Cellular transport system for the transfer of a nucleic acid through the nuclear envelope and methods thereof” (priority 1999, dated 2003).

This experiment relates to promoter of the ampicillin resistance gene (expression vector DNA). Description: Binding of PNA-peptide-hybrids to double stranded vector DNA (inhibition of Earl cleavage at the PNA binding site). Conditions: 25 μM PNA-peptide-hybrid, 100 ng vector. Here is the method:
100 ng expression vector were incubated in TE (pH 7,8) with 25 μM of different PNA-peptide-hybrids at either 65° C. or 37° C. for five minutes to three hours. The PNA-sequence NH2-CTCTTCCTTTTTC-COOH (SEQ ID NO: 6) used here, binds to the promoter of the ampicillin resistance gene.
At the C-terminus either a peptide of 21 amino acids (Peptide 1) or 27 amino acids (Peptide 2) or a spacer of 10 AEEA-units (Fmoc-AEEA-OH Spacer, PerSeptive Biosystems Inc., Framingham, USA) followed by 27 amino acids (Peptide 3) is located. The binding assays were subsequently incubated with restriction endonuclease Earl. Restricted DNA was stained with YOYO (Molecular Probes, Inc., Eugene, Oreg., USA) separated on an agarose gel and quantified with a fluorescence scanner (Image Plate Reader FLA 2000, analysis software L-Process, version 1.6, Fuji Photo Film Co., Ltd., Tokio). Cleavage of DNA by restriction endonuclease Earl is inhibited at the PNA binding site. Additional Earl restriction sites serve as internal control of the reaction.

On to “H-GKPSSDDEATADSQHSTPPKKKRKVED-OH [Peptide 2]”, for which the “Portion of peptide-labelled DNA shown as percentage of input DNA” value (shortened to “Portion … as percentage of input DNA”) (37 °C, 60 min) is on record as 90%; the “Portion … as percentage of input DNA” value (37 °C, 120 min) is on record as 91%; the “Portion … as percentage of input DNA” value (37 °C, 180 min) came to 94%; the “Portion … as percentage of input DNA” value (65 °C, 5 min) is 96%; the “Portion … as percentage of input DNA” value (65 °C, 10 min) came to 97%; the “Portion … as percentage of input DNA” value (65 °C, 15 min) was 97%.

As for H-GKPTADDQHSTPPKKKRKVED-OH [Peptide 1], the “Portion … as percentage of input DNA” value is, setting by setting: (37 °C, 60 min) 85%; (37 °C, 120 min) 91%; (37 °C, 180 min) 94%; (65 °C, 5 min) 94%; (65 °C, 10 min) 96%; (65 °C, 15 min) 96%.

For “NH2-(AEEA)10-GKPSSDDEATADSQHSTPPKKKRKVED-COOH [Peptide 3]”, the “Portion … as percentage of input DNA” value came out at 74% (37 °C, 60 min); 76% (37 °C, 120 min); 90% (37 °C, 180 min); 91% (65 °C, 5 min); 95% (65 °C, 10 min); 95% (65 °C, 15 min).
